Earlier results as cited in US8962010B2, “Intravaginal drug delivery devices for the delivery of macromolecules and water-soluble drugs” (Warner Chilcott Company, LLC, priority 2007, dated 2015).

Settings: pH 5

SMILES: CCN(Cc1cccc(S(=O)(=O)[O-])c1)c1ccc(C(=C2C=CC(=[N+](CC)Cc3cccc(S(=O)(=O)[O-])c3)C=C2)c2ccccc2S(=O)(=O)[O-])cc1.[Na+].[Na+] [Erioglaucine]
- water solubility: more than 20 % w/w
